Experimental data published in ChEMBL document CHEMBL1201862, “PubChem BioAssay data set” (2004).
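Five concentrations, 48 hours, 96-well plates. GI50 is the concentration that inhibits growth by half.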 The source made the active and inactive calls. No stated cut-off is given here; in the data, active = GI50 up to about 1.1 µM and inactive = higher.

What was measured:
Assay in all cases: inhibition of tumour cell growth, NCI panel, 48 h
786-0 = tested on: 786-0
COLO 205 = tested on: COLO 205
EKVX = tested on: EKVX
HCC 2998 = tested on: HCC 2998
HT-29 = tested on: HT-29
K562 = tested on: K562
KM12 = tested on: KM12
M14 = tested on: M14
MCF7 = tested on: MCF7
MDA-N = tested on: MDA-N
MOLT-4 = tested on: MOLT-4
NCI-H522 = tested on: NCI-H522
OVCAR-4 = tested on: OVCAR-4
OVCAR-5 = tested on: OVCAR-5
SF-268 = tested on: SF-268
SK-MEL-28 = tested on: SK-MEL-28
SK-OV-3 = tested on: SK-OV-3
SN12C = tested on: SN12C
UACC-62 = tested on: UACC-62
LOX IMVI = tested on: LOX IMVI

Structure (SMILES) | GI50 (786-0) | GI50 (COLO 205) | GI50 (EKVX) | GI50 (HCC 2998) | GI50 (HT-29) | GI50 (K562) | GI50 (KM12) | GI50 (M14) | GI50 (MCF7) | GI50 (MDA-N) | GI50 (MOLT-4) | GI50 (NCI-H522) | GI50 (OVCAR-4) | GI50 (OVCAR-5) | GI50 (SF-268) | GI50 (SK-MEL-28) | GI50 (SK-OV-3) | GI50 (SN12C) | GI50 (UACC-62) | GI50 (LOX IMVI)
COc1ccc(C(O)c2nccn2C)c(OC)c1 (configuration not stated) | > 100 µM (inactive) | > 100 µM (inactive) | > 100 µM (inactive) | > 100 µM (inactive) | > 100 µM (inactive) | > 100 µM (inactive) | > 100 µM (inactive) | > 100 µM (inactive) | > 100 µM (inactive) | > 100 µM (inactive) | > 100 µM (inactive) | > 100 µM (inactive) | > 100 µM (inactive) | > 100 µM (inactive) | > 100 µM (inactive) | > 100 µM (inactive) | 17.4 µM (inactive) | > 100 µM (inactive) | > 100 µM (inactive) | –
CC1(C)CC2(C)CC1CC2NC(=O)CCN1CCOCC1 (configuration not stated) | > 100 µM (inactive) | > 100 µM (inactive) | > 100 µM (inactive) | > 100 µM (inactive) | > 100 µM (inactive) | > 100 µM (inactive) | > 100 µM (inactive) | > 100 µM (inactive) | > 100 µM (inactive) | > 100 µM (inactive) | > 100 µM (inactive) | > 100 µM (inactive) | > 100 µM (inactive) | > 100 µM (inactive) | > 100 µM (inactive) | > 100 µM (inactive) | > 100 µM (inactive) | > 100 µM (inactive) | > 100 µM (inactive) | –
CCN(CC)CCN(/C(=N/c1ccccc1)N1CCCCC1)c1ccccc1 | 26.1 µM (inactive) | 2.3 µM (inactive) | 14.1 µM (inactive) | 6 µM (inactive) | 1.71 µM (inactive) | 2.18 µM (inactive) | 5.2 µM (inactive) | 6.34 µM (inactive) | 5.53 µM (inactive) | 1.78 µM (inactive) | 2.99 µM (inactive) | 2.62 µM (inactive) | 3.87 µM (inactive) | – | 27.6 µM (inactive) | 16.2 µM (inactive) | 11.9 µM (inactive) | 7 µM (inactive) | 6.12 µM (inactive) | 3.14 µM (inactive)
CC1=N[C@@](C)(C2CC3C=CC2C3=O)COC1=O (some centres not stated) | > 100 µM (inactive) | > 100 µM (inactive) | > 100 µM (inactive) | > 100 µM (inactive) | > 100 µM (inactive) | > 100 µM (inactive) | > 100 µM (inactive) | > 100 µM (inactive) | > 100 µM (inactive) | > 100 µM (inactive) | > 100 µM (inactive) | > 100 µM (inactive) | > 100 µM (inactive) | > 100 µM (inactive) | > 100 µM (inactive) | > 100 µM (inactive) | > 100 µM (inactive) | > 100 µM (inactive) | > 100 µM (inactive) | –
COc1cc(C2c3cc4c(cc3OC(N3CCOCC3)C2C)OCO4)cc(OC)c1OC (configuration not stated) | 3.18 µM (inactive) | – | 15.8 µM (inactive) | 1.23 µM (inactive) | 0.237 µM (active) | 0.397 µM (active) | 0.367 µM (active) | 0.708 µM (active) | 0.51 µM (active) | 0.148 µM (active) | 1.09 µM (active) | 0.614 µM (active) | > 23.7 µM (inactive) | 3.68 µM (inactive) | 10.5 µM (inactive) | 17.2 µM (inactive) | 3.27 µM (inactive) | 4.18 µM (inactive) | 0.537 µM (active) | 1.57 µM (inactive)
Oc1ccc([I+]c2ccccc2)cc1O | 65 µM (inactive) | 34.4 µM (inactive) | 53.3 µM (inactive) | 23.9 µM (inactive) | 37.4 µM (inactive) | 21.6 µM (inactive) | 24.8 µM (inactive) | – | > 10 µM (inactive) | 35.3 µM (inactive) | 21.9 µM (inactive) | 17.8 µM (inactive) | 25.8 µM (inactive) | 59.6 µM (inactive) | 42.8 µM (inactive) | 61.9 µM (inactive) | – | 40.5 µM (inactive) | – | 30.3 µM (inactive)
CN(/N=C/c1ccccn1)C1=NCCCN1 | > 100 µM (inactive) | > 100 µM (inactive) | > 100 µM (inactive) | > 100 µM (inactive) | > 100 µM (inactive) | > 100 µM (inactive) | > 100 µM (inactive) | > 100 µM (inactive) | > 100 µM (inactive) | > 100 µM (inactive) | > 100 µM (inactive) | > 100 µM (inactive) | > 100 µM (inactive) | > 100 µM (inactive) | > 100 µM (inactive) | > 100 µM (inactive) | > 100 µM (inactive) | – | > 100 µM (inactive) | > 100 µM (inactive)
COC1(O)C(=O)c2ccccc2OC1(OC)c1ccccc1 (configuration not stated) | > 100 µM (inactive) | > 100 µM (inactive) | > 100 µM (inactive) | > 100 µM (inactive) | > 100 µM (inactive) | 42 µM (inactive) | – | > 100 µM (inactive) | 48.9 µM (inactive) | > 100 µM (inactive) | 75.2 µM (inactive) | > 100 µM (inactive) | > 100 µM (inactive) | > 100 µM (inactive) | > 100 µM (inactive) | > 100 µM (inactive) | – | > 100 µM (inactive) | > 100 µM (inactive) | 65.9 µM (inactive)
COc1ccc(-c2c(-c3ccc(OC)cc3)n3c(=O)n(C)c(=O)n23)cc1 | > 100 µM (inactive) | > 100 µM (inactive) | 34.9 µM (inactive) | > 100 µM (inactive) | – | > 100 µM (inactive) | > 100 µM (inactive) | > 100 µM (inactive) | > 100 µM (inactive) | > 10 µM (inactive) | > 100 µM (inactive) | > 100 µM (inactive) | 23.3 µM (inactive) | – | – | > 100 µM (inactive) | 50.5 µM (inactive) | 34 µM (inactive) | 30.5 µM (inactive) | > 100 µM (inactive)
Cc1nnc2n1N=C(c1ccccc1)/C(=C/c1ccc(-c3ccc(Cl)cc3)o1)S2 | 13.1 µM (inactive) | 25.2 µM (inactive) | 20 µM (inactive) | 7.19 µM (inactive) | 16.5 µM (inactive) | 7.85 µM (inactive) | 13.4 µM (inactive) | 17.9 µM (inactive) | 2.11 µM (inactive) | 11.6 µM (inactive) | 3.55 µM (inactive) | 10.6 µM (inactive) | 15.7 µM (inactive) | 20.6 µM (inactive) | 14.3 µM (inactive) | – | 32.1 µM (inactive) | 15.6 µM (inactive) | 12.4 µM (inactive) | –
CC1CCOc2ccc(cc2)/C=N\c2ccc(cc2)CCc2ccc(cc2)/N=C\c2ccc(cc2)OCC1 | > 100 µM (inactive) | > 100 µM (inactive) | > 100 µM (inactive) | > 100 µM (inactive) | > 100 µM (inactive) | > 100 µM (inactive) | > 100 µM (inactive) | > 100 µM (inactive) | > 100 µM (inactive) | > 100 µM (inactive) | > 100 µM (inactive) | > 100 µM (inactive) | > 100 µM (inactive) | > 100 µM (inactive) | > 100 µM (inactive) | > 100 µM (inactive) | – | > 100 µM (inactive) | > 100 µM (inactive) | > 100 µM (inactive)
CC(C)(C)c1cc[n+](C[n+]2ccc(C(C)(C)C)cc2)cc1 | > 100 µM (inactive) | > 100 µM (inactive) | > 100 µM (inactive) | > 100 µM (inactive) | > 100 µM (inactive) | > 100 µM (inactive) | > 100 µM (inactive) | > 100 µM (inactive) | > 100 µM (inactive) | > 100 µM (inactive) | > 100 µM (inactive) | > 100 µM (inactive) | > 100 µM (inactive) | > 100 µM (inactive) | > 100 µM (inactive) | > 100 µM (inactive) | > 100 µM (inactive) | > 100 µM (inactive) | > 100 µM (inactive) | –
Nc1ncnc2c1ncn2C1OC(CO)C(O)C(O)C1O (configuration not stated) | > 100 µM (inactive) | > 100 µM (inactive) | > 100 µM (inactive) | > 100 µM (inactive) | > 100 µM (inactive) | > 100 µM (inactive) | > 100 µM (inactive) | > 100 µM (inactive) | > 100 µM (inactive) | > 100 µM (inactive) | > 100 µM (inactive) | > 100 µM (inactive) | > 100 µM (inactive) | > 100 µM (inactive) | > 100 µM (inactive) | > 100 µM (inactive) | – | > 100 µM (inactive) | – | > 100 µM (inactive)
O=C(NNC(=O)c1csc(NC(=S)NC2CCCCC2)n1)c1ccccc1 | 12.7 µM (inactive) | 5.25 µM (inactive) | 1.84 µM (inactive) | 13.9 µM (inactive) | 7.23 µM (inactive) | – | 8.13 µM (inactive) | 13.5 µM (inactive) | 2.06 µM (inactive) | 13.9 µM (inactive) | 4.2 µM (inactive) | 11.7 µM (inactive) | 3.34 µM (inactive) | 11.9 µM (inactive) | 5.66 µM (inactive) | – | 12.1 µM (inactive) | 5.97 µM (inactive) | 10.2 µM (inactive) | 10.3 µM (inactive)
O=c1ccc2c(Cl)cccc2o1 | > 10 µM (inactive) | > 100 µM (inactive) | 58.3 µM (inactive) | 3.74 µM (inactive) | > 10 µM (inactive) | > 100 µM (inactive) | > 100 µM (inactive) | > 100 µM (inactive) | > 100 µM (inactive) | > 100 µM (inactive) | > 100 µM (inactive) | > 100 µM (inactive) | > 100 µM (inactive) | > 100 µM (inactive) | > 100 µM (inactive) | > 100 µM (inactive) | – | > 100 µM (inactive) | > 100 µM (inactive) | > 100 µM (inactive)
